Laboratory results published in patent US20080045537A1, “Chemical Compounds” (priority 2004, published 2008).

The compounds below were run on HIV-1 IIIB (T-tropic, CXCR4 utilizing) (assay: HOS HIV-1 infectivity assay). Conditions: Human immunodeficiency virus 1, IIIB; as determined by the infectivity assay; strain not stated in Table 2; read-out: Activity Level.
Type: cell-based
Outline: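 Cells were plated and left 24 h, after which compound was added for 1 h. Virus at about 2 million RLU per well followed, with 96 h further incubation at 37 °C, 5% CO2. Luciferase activity was then measured with Steady-Glo, and uninfected-culture viability with CellTiter-Glo.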

`CN1CCN(c2cccc3nc(CN(CC4CC4)[C@@H]4CCCc5cccnc54)[nH]c23)CC1` [Example 139, (8R)—N-(Cyclopropylmethyl)-N-{[4-(4-methyl-1-piperazinyl)-1H-benzimidazol-2-yl]methyl}-5,6,7,8-tetrahydro-8-quinolinamine] and `CN1CCN(c2cccc3nc(CN(CC4CC4)[C@H]4CCCc5cccnc54)[nH]c23)CC1` [Example 140, (8S)—N-(Cyclopropylmethyl)-N-{[4-(4-methyl-1-piperazinyl)-1H-benzimidazol-2-yl]methyl}-5,6,7,8-tetrahydro-8-quinolinamine] cannot be ordered by IC50: under 100 nM for the first, under 100 nM for the second.

`CN(Cc1nc2cccc(N3CCN4CCC[C@@H]4C3)c2[nH]1)[C@H]1CCCc2cccnc21` [Example 141, (8S)—N-({4-[(8aR)-hexahydropyrrolo[1,2-a]pyrazin-2(1H)-yl]-1H-benzimidazol-2-yl}methyl)-N-methyl-5,6,7,8-tetrahydro-8-quinolinamine] and `CCN(Cc1nc2cccc(N3CCN4CCC[C@@H]4C3)c2[nH]1)[C@H]1CCCc2cccnc21` [Example 142, (8S)—N-Ethyl-N-({4-[(8aR)-hexahydropyrrolo[1,2-a]pyrazin-2(1H)-yl]-1H-benzimidazol-2-yl}methyl)-5,6,7,8-tetrahydro-8-quinolinamine] cannot be ordered by IC50: under 100 nM for the first, under 100 nM for the second.

`CCCN(Cc1nc2cccc(N3CCN4CCC[C@@H]4C3)c2[nH]1)[C@H]1CCCc2cccnc21` [Example 143, (8S)—N-({4-[(8aR)-hexahydropyrrolo[1,2-a]pyrazin-2(1H)-yl]-1H-benzimidazol-2-yl}methyl)-N-propyl-5,6,7,8-tetrahydro-8-quinolinamine] and `CN1CCN(c2cccc3nc(CN(CCO)[C@H]4CCCc5cccnc54)[nH]c23)CC1` [Example 148, 2-{{[4-(4-Methyl-1-piperazinyl)-1H-benzimidazol-2-yl]methyl}[(8S)-5,6,7,8-tetrahydro-8-quinolinyl]amino}ethanol] cannot be ordered by IC50: under 100 nM for the first, under 100 nM for the second.

`CN1C[C@H]2C[C@H](C1)CN(c1cccc3nc(CN(C)[C@H]4CCCc5cccnc54)[nH]c13)C2` [Example 144, (8S)—N-methyl-N-({4-[(1R,5R)-7-methyl-3,7-diazabicyclo[3.3.1]non-3-yl]-1H-benzimidazol-2-yl}methyl)-5,6,7,8-tetrahydro-8-quinolinamine] and `CN1CCN(c2cccc3nc(CN(C4CC4)C4CCCc5cccnc54)[nH]c23)CC1` (centres unmarked) [Example 145, N-Cyclopropyl-N-{[4-(4-methyl-1-piperazinyl)-1H-benzimidazol-2-yl]methyl}-5,6,7,8-tetrahydro-8-quinolinamine] cannot be ordered by IC50: under 100 nM for the first, under 100 nM for the second.

`COc1ccc([C@H](C)N(Cc2nc3cccc(N4CCN(C)CC4)c3[nH]2)[C@H]2CCCc3cccnc32)cc1` [Example 146, (8S)—N-{(1S)-1-[4-(methyloxy)phenyl]ethyl}-N-{[4-(4-methyl-1-piperazinyl)-1H-benzimidazol-2-yl]methyl}-5,6,7,8-tetrahydro-8-quinolinamine] and `CN1CCN(c2cccc3nc(CN(Cc4ccccc4)[C@H]4CCCc5cccnc54)[nH]c23)CC1` [Example 150, (8S)—N-{[4-(4-methyl-1-piperazinyl)-1H-benzimidazol-2-yl]methyl}-N-(phenylmethyl)-5,6,7,8-tetrahydro-8-quinolinamine] cannot be ordered by IC50: under 100 nM for the first, under 100 nM for the second.

`CN1CCN(c2cccc3nc(CN(CCOCc4ccccc4)[C@H]4CCCc5cccnc54)[nH]c23)CC1` [Example 147] and `CN1CCN(c2cccc3nc(CN(CCCO)[C@H]4CCCc5cccnc54)[nH]c23)CC1` [Example 149, 3-{{[4-(4-Methyl-1-piperazinyl)-1H-benzimidazol-2-yl]methyl}[(8S)-5,6,7,8-tetrahydro-8-quinolinyl]amino}-1-propanol] cannot be ordered by IC50: under 100 nM for the first, under 100 nM for the second.

First: CN1CCN(c2cccc3c2nc(CN(C)C2CCCc4cccnc42)n3C)CC1 (centres unmarked) [Example 152, N-Methyl-N-{[1-methyl-4-(4-methyl-1-piperazinyl)-1H-benzimidazol-2-yl]methyl}-5,6,7,8-tetrahydro-8-quinolinamine]
Second: CN1CCN(c2cccc3nc(CN(C)C4CCCc5cccnc54)n(C)c23)CC1 (centres unmarked) [Example 153, N-Methyl-N-{[1-methyl-7-(4-methyl-1-piperazinyl)-1H-benzimidazol-2-yl]methyl}-5,6,7,8-tetrahydro-8-quinolinamine]
The IC50 of the first is higher: 100 to 500 nM for the first, under 100 nM for the second. The second is the more potent here.

`CCN(Cc1nc2cccc(N3CCN(C)CC3)c2n1C)C1CCCc2cccnc21` (centres unmarked) [Example 154, N-Ethyl-N-{[1-methyl-7-(4-methyl-1-piperazinyl)-1H-benzimidazol-2-yl]methyl}-5,6,7,8-tetrahydro-8-quinolinamine] and `CCN(Cc1nc2cccc(N3CCN(C)CC3)c2n1C)[C@H]1CCCc2cccnc21` [Example 167, (8S)—N-Ethyl-N-{[1-methyl-7-(4-methyl-1-piperazinyl)-1H-benzimidazol-2-yl]methyl}-5,6,7,8-tetrahydro-8-quinolinamine] cannot be ordered by IC50: under 100 nM for the first, under 100 nM for the second.

`CCCN(Cc1nc2cccc(N3CCN(C)CC3)c2n1C)C1CCCc2cccnc21` (centres unmarked) [Example 155, N-{[1-Methyl-7-(4-methyl-1-piperazinyl)-1H-benzimidazol-2-yl]methyl}-N-propyl-5,6,7,8-tetrahydro-8-quinolinamine] and `CCCN(Cc1nc2cccc(N3CCN(C)CC3)c2n1C)[C@H]1CCCc2cccnc21` [Example 168, (8S)—N-{[1-Methyl-7-(4-methyl-1-piperazinyl)-1H-benzimidazol-2-yl]methyl}-N-propyl-5,6,7,8-tetrahydro-8-quinolinamine] cannot be ordered by IC50: under 100 nM for the first, under 100 nM for the second.

`CN1CCN(c2cccc3nc(CN(CC4CC4)C4CCCc5cccnc54)n(C)c23)CC1` (centres unmarked) [Example 156, N-(Cyclopropylmethyl)-N-{[1-methyl-7-(4-methyl-1-piperazinyl)-1H-benzimidazol-2-yl]methyl}-5,6,7,8-tetrahydro-8-quinolinamine] and `CN1CCN(c2cccc3nc(CN(C)[C@H]4CCCc5cccnc54)n(C)c23)CC1` [Example 160, (8S)—N-Methyl-N-{[1-methyl-7-(4-methyl-1-piperazinyl)-1H-benzimidazol-2-yl]methyl}-5,6,7,8-tetrahydro-8-quinolinamine] cannot be ordered by IC50: under 100 nM for the first, under 100 nM for the second.

`CN(Cc1nc2cccc(N3CCNCC3)c2n1C)[C@H]1CCCc2cccnc21` [Example 159, (8S)—N-methyl-N-{[1-methyl-7-(1-piperazinyl)-1H-benzimidazol-2-yl]methyl}-5,6,7,8-tetrahydro-8-quinolinamine] and `Cn1c(CN(CCO)[C@H]2CCCc3cccnc32)nc2cccc(N3CCNCC3)c21` [Example 178, 2-{{[1-Methyl-7-(1-piperazinyl)-1H-benzimidazol-2-yl]methyl}[(8S)-5,6,7,8-tetrahydro-8-quinolinyl]amino}ethanol] cannot be ordered by IC50: under 100 nM for the first, under 100 nM for the second.

`CN1CCN(c2cccc3nc(CN(C)[C@@H]4CCCc5cccnc54)n(C)c23)CC1` [Example 161, (8R)—N-Methyl-N-{[1-methyl-7-(4-methyl-1-piperazinyl)-1H-benzimidazol-2-yl]methyl}-5,6,7,8-tetrahydro-8-quinolinamine] and `CCn1c(CN(C)[C@H]2CCCc3cccnc32)nc2cccc(N3CCN(C)CC3)c21` [Example 164, (8S)—N-{[1-ethyl-7-(4-methyl-1-piperazinyl)-1H-benzimidazol-2-yl]methyl}-N-methyl-5,6,7,8-tetrahydro-8-quinolinamine] cannot be ordered by IC50: under 100 nM for the first, under 100 nM for the second.

`CCn1c(CN(Cc2ccccc2)[C@H]2CCCc3cccnc32)nc2cccc(N3CCN(C)CC3)c21` [Example 165, (8S)—N-{[1-Ethyl-7-(4-methyl-1-piperazinyl)-1H-benzimidazol-2-yl]methyl}-N-(Phenylmethyl)-5,6,7,8-tetrahydro-8-quinolinamine] and `CN1CCN(c2cccc3nc(CN(Cc4ccccc4)[C@H]4CCCc5cccnc54)n(C)c23)CC1` [Example 169, (8S)—N-{[1-Methyl-7-(4-methyl-1-piperazinyl)-1H-benzimidazol-2-yl]methyl}-N-(Phenylmethyl)-5,6,7,8-tetrahydro-8-quinolinamine] cannot be ordered by IC50: under 100 nM for the first, under 100 nM for the second.

`CCN(Cc1nc2cccc(N3CCN(C)CC3)c2n1CC)[C@H]1CCCc2cccnc21` [Example 166, (8S)—N-Ethyl-N-{[1-ethyl-7-(4-methyl-1-piperazinyl)-1H-benzimidazol-2-yl]methyl}-5,6,7,8-tetrahydro-8-quinolinamine] and `C[C@H](c1nc2c(N3CCN(C)CC3)cccc2[nH]1)N(C)C1CCCc2cccnc21` (stereo partly drawn) [Example 172, N-Methyl-N-{(1R)-1-[4-(4-methyl-1-piperazinyl)-1H-benzimidazol-2-yl]ethyl}-5,6,7,8-tetrahydro-8-quinolinamine] cannot be ordered by IC50: under 100 nM for the first, under 100 nM for the second.

`CN1CCN(c2c(Cl)ccc3nc(CN(C)C4CCCc5cccnc54)[nH]c23)CC1` (centres unmarked) [Example 170, N-{[5-Chloro-4-(4-methyl-1-piperazinyl)-1H-benzimidazol-2-yl]methyl}-N-methyl-5,6,7,8-tetrahydro-8-quinolinamine] and `CN1CCN(c2ccc(Cl)c3nc(CN(C)C4CCCc5cccnc54)[nH]c23)CC1` (centres unmarked) [Example 171, N-{[4-Chloro-7-(4-methyl-1-piperazinyl)-1H-benzimidazol-2-yl]methyl}-N-methyl-5,6,7,8-tetrahydro-8-quinolinamine] cannot be ordered by IC50: under 100 nM for the first, under 100 nM for the second.

`CN1CCN(c2cccc3[nH]c([C@H](COCc4ccccc4)N(C)C4CCCc5cccnc54)nc23)CC1` (stereo partly drawn) [Example 176, N-Methyl-N-{(1R)-1-[4-(4-methyl-1-piperazinyl)-1H-benzimidazol-2-yl]-2-[(phenylmethyl)oxy]ethyl}-5,6,7,8-tetrahydro-8-quinolinamine] and `CN1CCN(c2cccc3[nH]c([C@@H](COCc4ccccc4)N(C)C4CCCc5cccnc54)nc23)CC1` (stereo partly drawn) [Example 177, N-Methyl-N-{(1S)-1-[4-(4-methyl-1-piperazinyl)-1H-benzimidazol-2-yl]-2-[(phenylmethyl)oxy]ethyl}-5,6,7,8-tetrahydro-8-quinolinamine] cannot be ordered by IC50: under 100 nM for the first, under 100 nM for the second.
